In patent US20240158418A1 (C4 Therapeutics, Inc., priority 2021, published 2024):
Read-outs that look alike come from different tables or passages of the source. Values belong to the molecule of their own block, whether it stands above or below them.

Experiments:
EGFR L858R-T790M = biological target: T1, EGFR L858R-T790M (Homo sapiens, UniProt P00533, L858R/T790M); test: EGFR degradation, Total EGFR (L858R-specific) HTRF, NCI-H1975; format: cell-based; settings: NCI-H1975 cells, 6 hours, Total EGFR HTRF, read-out: H1975 EGFR DC50
T1 construct: NCI-H1975 (harboring EGFR heterozygous L858R-T790M mutations); host or cells: NCI-H1975
T1 sequence (P00533 25-1210 T790M/L858R): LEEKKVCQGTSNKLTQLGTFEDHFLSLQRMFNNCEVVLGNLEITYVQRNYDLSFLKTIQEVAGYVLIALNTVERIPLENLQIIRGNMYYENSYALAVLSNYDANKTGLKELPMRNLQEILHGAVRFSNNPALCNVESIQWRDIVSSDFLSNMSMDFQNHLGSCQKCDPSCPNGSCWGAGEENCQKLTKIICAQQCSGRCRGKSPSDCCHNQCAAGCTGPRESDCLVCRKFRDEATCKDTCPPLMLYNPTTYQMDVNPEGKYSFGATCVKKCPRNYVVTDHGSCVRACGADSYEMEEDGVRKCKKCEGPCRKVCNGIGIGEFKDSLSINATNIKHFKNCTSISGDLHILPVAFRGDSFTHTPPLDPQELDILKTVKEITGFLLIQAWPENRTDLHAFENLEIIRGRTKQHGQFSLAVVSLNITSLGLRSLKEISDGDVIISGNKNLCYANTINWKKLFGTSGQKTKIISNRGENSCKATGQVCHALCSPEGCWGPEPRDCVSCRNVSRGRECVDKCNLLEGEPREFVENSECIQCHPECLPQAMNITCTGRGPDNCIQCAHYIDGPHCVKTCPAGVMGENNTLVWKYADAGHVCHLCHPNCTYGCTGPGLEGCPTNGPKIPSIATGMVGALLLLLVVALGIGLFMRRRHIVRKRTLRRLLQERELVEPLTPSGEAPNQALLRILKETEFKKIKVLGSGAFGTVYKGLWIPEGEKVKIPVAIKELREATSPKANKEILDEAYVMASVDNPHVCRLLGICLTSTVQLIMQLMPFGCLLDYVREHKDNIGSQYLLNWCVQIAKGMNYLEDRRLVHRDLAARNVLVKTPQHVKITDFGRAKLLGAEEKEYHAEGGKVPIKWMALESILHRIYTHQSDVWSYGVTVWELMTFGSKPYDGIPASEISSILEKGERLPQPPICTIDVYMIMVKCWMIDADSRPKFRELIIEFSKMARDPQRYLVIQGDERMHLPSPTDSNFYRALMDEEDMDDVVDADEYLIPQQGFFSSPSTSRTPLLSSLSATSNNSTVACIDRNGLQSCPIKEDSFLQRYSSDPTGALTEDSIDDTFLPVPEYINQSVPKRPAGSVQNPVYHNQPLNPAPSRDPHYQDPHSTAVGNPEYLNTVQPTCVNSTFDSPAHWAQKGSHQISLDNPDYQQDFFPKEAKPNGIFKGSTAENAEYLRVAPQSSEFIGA
Procedure, shortened: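 HTRF read-outs: pY1068 phospho-EGFR for IC50; total EGFR (pan-EGFR in A431, L858R-specific in mutant lines) for DC50. Compounds were titrated 11 points, half-log, from 10 μM in duplicate onto cells in 10% FBS RPMI, incubated 6 h at 37°C.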

EGFR L858R = EGFR L858R (Homo sapiens, UniProt P00533, L858R); test: EGFR degradation, Total EGFR (L858R-specific) HTRF, NCI-H3255; format: cell-based; set-up: NCI-H3255 (harboring EGFR heterozygous L858R mutation); host or cells: NCI-H3255; settings: NCI-H3255 cells, 6 hours, Total EGFR HTRF, read-out: H3255 EGFR DC50
Chain of EGFR L858R (P00533 25-1210 L858R): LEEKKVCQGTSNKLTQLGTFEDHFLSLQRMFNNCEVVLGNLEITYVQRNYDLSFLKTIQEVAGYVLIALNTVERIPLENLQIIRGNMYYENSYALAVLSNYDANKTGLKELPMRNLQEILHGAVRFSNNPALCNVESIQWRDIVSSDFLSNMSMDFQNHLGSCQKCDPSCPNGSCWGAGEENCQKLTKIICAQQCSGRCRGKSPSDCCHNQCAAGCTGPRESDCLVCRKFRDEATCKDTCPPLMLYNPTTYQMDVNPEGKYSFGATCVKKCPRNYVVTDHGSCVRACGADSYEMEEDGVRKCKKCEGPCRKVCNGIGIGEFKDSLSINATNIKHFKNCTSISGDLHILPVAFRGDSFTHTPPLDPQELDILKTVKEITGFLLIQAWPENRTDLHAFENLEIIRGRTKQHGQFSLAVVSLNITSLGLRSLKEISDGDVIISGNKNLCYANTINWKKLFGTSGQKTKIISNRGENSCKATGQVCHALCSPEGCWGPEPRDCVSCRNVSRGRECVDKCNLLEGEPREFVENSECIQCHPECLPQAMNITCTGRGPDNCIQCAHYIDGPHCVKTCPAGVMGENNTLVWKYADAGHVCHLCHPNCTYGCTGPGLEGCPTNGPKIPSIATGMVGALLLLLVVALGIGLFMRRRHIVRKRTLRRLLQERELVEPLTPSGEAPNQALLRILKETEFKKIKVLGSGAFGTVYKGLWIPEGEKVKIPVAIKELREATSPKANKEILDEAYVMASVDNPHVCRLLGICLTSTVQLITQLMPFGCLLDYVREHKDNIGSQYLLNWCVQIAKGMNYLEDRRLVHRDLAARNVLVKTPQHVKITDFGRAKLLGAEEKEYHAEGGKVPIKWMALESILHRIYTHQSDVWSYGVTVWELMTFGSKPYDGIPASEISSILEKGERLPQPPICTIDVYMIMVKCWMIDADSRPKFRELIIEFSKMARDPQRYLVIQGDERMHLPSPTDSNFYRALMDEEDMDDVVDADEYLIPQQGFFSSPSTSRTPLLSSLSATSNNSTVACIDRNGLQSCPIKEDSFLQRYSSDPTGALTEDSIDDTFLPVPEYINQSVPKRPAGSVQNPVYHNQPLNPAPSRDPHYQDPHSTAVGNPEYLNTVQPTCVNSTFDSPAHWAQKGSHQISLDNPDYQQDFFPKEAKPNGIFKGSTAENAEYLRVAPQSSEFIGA
Text: NCI-H1975 (harboring EGFR heterozygous L858R-T790M mutations) and NCI-H3255 (harboring EGFR heterozygous L858R mutation) were purchased from ATCC and NCI, respectively. NCI-H1975+CS (harboring EGFR heterozygous L858R-T790M-C797S mutations) was generated using CRISPR technology to introduce the additional C797S mutation by Horizon Discovery. A431 (harboring EGFR wildtype) was purchased from ATCC. RPMI 1640 no-phenol red medium and fetal bovine serum (FBS) were purchased from Gibco (Grand Island, NY, USA). Cell culture flasks and 384-well microplates were acquired from VWR (Radnor, PA, USA). Phosphorylated (pY1068) EGFR and Total EGFR (using L858R-specific detection antibody and pan-EGFR antibody for EGFR mutant cell lines and EGFR wild-type cell lines, respectively) HTRF assay kits were purchased from Cisbio (Bedford, MA, USA).
Degradation of EGFR protein containing L858R mutation or wild-type was determined based on quantification of FRET signal using a Total EGFR (L858R-specific or pan-EGFR detecting) HTRF assay kit. Phospho-EGFR (pEGFR) inhibition was determined based on quantification of FRET signal using a pY1068 EGFR HTRF assay kit. In separate assay plates, test compounds were added to the 384-well plate from a top concentration of 10 μM with 11 points, half log titration in duplicates. For each assay, 12.5 uL of cells suspended in assay media (RPMI 1640 no-phenol red medium+10% FBS) at cell densities indicated for each cell line in Table 8 below were dispensed using a multi-channel pipette to 384-well low volume white HTRF microplates containing a duplicate concentration range of test compounds and DMSO controls. The plates were kept at 37° C. with 5% CO2 for 6 hours and then incubated with either phospho EGFR or Total EGFR HTRF detection antibodies according to the cell line and EGFR mutant being assayed. Cells treated in the absence of the test compound were the negative control. Positive control was set by wells containing all reagents but no cells. FRET signal was acquired on EnVision™ Multilabel Reader (PerkinElmer, Santa Clara, CA, USA). Compound concentration that achieves 50% degradation and inhibition was reported as DC50 and IC50, respectively.

SMILES: O=C1CCC(Nc2ccc(C3CCN(CC(=O)N4CCN(c5ccc(-c6cc(F)c7cn(C(C(=O)Nc8nccs8)c8ncn9c8CCC9)nc7c6)cn5)CC4)CC3)nc2)C(=O)N1 (centres unmarked) [Compound 66, 2-(6,7-dihydro-5H-pyrrolo[1,2-c]imidazol-1-yl)-2-[6-[6-[4-[2-[4-[5-[(2,6-dioxo-3-piperidyl)amino]-2-pyridyl]-1-piperidyl]acetyl]piperazin-1-yl]-3-pyridyl]-4-fluoro-indazol-2-yl]-N-thiazol-2-yl-acetamide]
- DC50 (EGFR L858R-T790M; Table 9A): < 50 nM
- DC50 (EGFR L858R; Table 9A): < 50 nM

SMILES: Cn1nc(N2CCC(=O)NC2=O)c2ccc(C3CCN(CC(=O)N4CCN(c5ccc(-c6cc(F)c7cn(C(C(=O)Nc8nccs8)c8ncn9c8CCC9)nc7c6)cn5)CC4)CC3)cc21 (centres unmarked) [Compound 67, 2-(6,7-dihydro-5H-pyrrolo[1,2-c]imidazol-1-yl)-2-[6-[6-[4-[2-[4-[3-(2,4-dioxohexahydropyrimidin-1-yl)-1-methyl-indazol-6-yl]-1-piperidyl]acetyl]piperazin-1-yl]-3-pyridyl]-4-fluoro-indazol-2-yl]-N-thiazol-2-yl-acetamide]
- DC50 (EGFR L858R-T790M; Table 9A): < 50 nM
- DC50 (EGFR L858R; Table 9A): 50 to 150 nM

SMILES: O=C1CC[C@H](Nc2ccc(C3CCN(CC(=O)N4CCN(c5ccc(-c6cc(F)c7cn(C(C(=O)Nc8nccs8)c8ncn9c8CCC9)nc7c6)cn5)CC4)CC3)c(F)c2)C(=O)N1 (stereo partly drawn) [Compound 68, 2-(6,7-dihydro-5H-pyrrolo[1,2-c]imidazol-1-yl)-2-(6-(6-(4-(2-(4-(4-(((S)-2,6-dioxopiperidin-3-yl)amino)-2-fluorophenyl)piperidin-1-yl)acetyl)piperazin-1-yl)pyridin-3-yl)-4-fluoro-2H-indazol-2-yl)-N-(thiazol-2-yl)acetamide]
- DC50 (EGFR L858R-T790M; Table 9A): < 50 nM
- DC50 (EGFR L858R; Table 9A): < 50 nM

SMILES: Cn1nc(N2CCC(=O)NC2=O)c2ccc(C3CCN(C(=O)CN4CC5(C4)CN(c4ccc(-c6ccc7cn(C(C(=O)Nc8nccs8)c8ncn9c8CCC9)nc7c6F)cn4)C5)CC3(F)F)cc21 (centres unmarked) [Compound 73, 2-(6,7-dihydro-5H-pyrrolo[1,2-c]imidazol-1-yl)-2-(6-(6-(6-(2-(4-(3-(2,4-dioxotetrahydropyrimidin-1(2H)-yl)-1-methyl-1H-indazol-6-yl)-3,3-difluoropiperidin-1-yl)-2-oxoethyl)-2,6-diazaspiro[3.3]heptan-2-yl)pyridin-3-yl)-7-fluoro-2H-indazol-2-yl)-N-(thiazol-2-yl)acetamide]
- DC50 (EGFR L858R-T790M; Table 9B): < 50 nM
- DC50 (EGFR L858R; Table 9B): < 50 nM

SMILES: O=C1CC[C@H](Nc2ccc(C3CCN(CC(=O)N4C[C@H]5C[C@@H]4CN5c4ccc(-c5cc(F)c6c(c5)C(=O)N(C(C(=O)Nc5nccs5)c5ncn7c5CCC7)C6)cc4)CC3)c(F)c2)C(=O)N1 (stereo partly drawn) [Compound 80, 2-(6,7-dihydro-5H-pyrrolo[1,2-c]imidazol-1-yl)-2-(6-(4-((1R,4R)-5-(2-(4-(4-(((S)-2,6-dioxopiperidin-3-yl)amino)-2-fluorophenyl)piperidin-1-yl)acetyl)-2,5-diazabicyclo[2.2.1]heptan-2-yl)phenyl)-4-fluoro-1-oxoisoindolin-2-yl)-N-(thiazol-2-yl)acetamide]
- DC50 (EGFR L858R-T790M; Table 9B): 50 to 150 nM
- DC50 (EGFR L858R; Table 9B): < 50 nM

SMILES: O=C1CCC(Nc2ccc(N3CCC(O)(CC(=O)N4CCN(c5ccc(-c6cc(F)c7c(c6)C(=O)N(C(C(=O)Nc6nccs6)c6ncn8c6CCC8)C7)cc5)CC4)CC3)c(F)c2)C(=O)N1 (centres unmarked) [Compound 83, 2-(6,7-dihydro-5H-pyrrolo[1,2-c]imidazol-1-yl)-2-[6-[4-[4-[2-[1-[4-[(2,6-dioxo-3-piperidyl)amino]-2-fluoro-phenyl]-4-hydroxy-4-piperidyl]acetyl]piperazin-1-yl]phenyl]-4-fluoro-1-oxo-isoindolin-2-yl]-N-thiazol-2-yl-acetamide]
- DC50 (EGFR L858R-T790M; Table 9B): < 50 nM
- DC50 (EGFR L858R; Table 9B): < 50 nM

SMILES: O=C1CC[C@H](Nc2ccc(C3CCN(CC(=O)N4CCCN(c5ccc(-c6cc(F)c7c(c6)C(=O)N(C(C(=O)Nc6nccs6)c6ncn8c6CCC8)C7)cc5)CC4)CC3)c(F)c2)C(=O)N1 (stereo partly drawn) [Compound 84, 2-(6,7-dihydro-5H-pyrrolo[1,2-c]imidazol-1-yl)-2-(6-(4-(4-(2-(4-(4-(((S)-2,6-dioxopiperidin-3-yl)amino)-2-fluorophenyl)piperidin-1-yl)acetyl)-1,4-diazepan-1-yl)phenyl)-4-fluoro-1-oxoisoindolin-2-yl)-N-(thiazol-2-yl)acetamide]
- DC50 (EGFR L858R-T790M; Table 9B): 50 to 150 nM
- DC50 (EGFR L858R; Table 9B): 50 to 150 nM

SMILES: Cn1nc(N2CCC(=O)NC2=O)c2ccc(C3CCN(C(=O)CN4CCC(c5ccc(-c6cc(F)c7c(c6)C(=O)N(C(C(=O)Nc6nccs6)c6ncn8c6CCC8)C7)cc5)CC4)CC3)cc21 (centres unmarked) [Compound 85, 2-(6,7-dihydro-5H-pyrrolo[1,2-c]imidazol-1-yl)-2-[6-[4-[1-[2-[4-[3-(2,4-dioxohexahydropyrimidin-1-yl)-1-methyl-indazol-6-yl]-1-piperidyl]-2-oxo-ethyl]-4-piperidyl]phenyl]-4-fluoro-1-oxo-isoindolin-2-yl]-N-thiazol-2-yl-acetamide]
- DC50 (EGFR L858R-T790M; Table 9B): 50 to 150 nM
- DC50 (EGFR L858R; Table 9B): < 50 nM

SMILES: O=C1CCC(Nc2cc(F)c(N3CCC(O)(CC(=O)N4CC5(C4)CN(c4ccc(-c6cc(F)c7c(c6)C(=O)N(C(C(=O)Nc6nccs6)c6ncn8c6CCC8)C7)cc4)C5)CC3)c(F)c2)C(=O)N1 (centres unmarked) [Compound 103, 2-(6,7-dihydro-5H-pyrrolo[1,2-c]imidazol-1-yl)-2-[6-[4-[2-[2-[1-[4-[(2,6-dioxo-3-piperidyl)-amino]-2,6-difluoro-phenyl]-4-hydroxy-4-piperidyl]acetyl]-2,6-diazaspiro[3.3]hept-an-6-yl]-phenyl]-4-fluoro-1-oxo-isoindolin-2-yl]-N-thiazol-2-yl-acetamide]
- DC50 (EGFR L858R-T790M; Table 9B): < 50 nM
- DC50 (EGFR L858R; Table 9B): < 50 nM

The remaining lines, values ahead:

- DC50 (EGFR L858R-T790M; Table 9B): < 50 nM
- DC50 (EGFR L858R; Table 9B): < 50 nM
SMILES: O=C1CCC(Nc2ccc(N3CCC(O)(CC(=O)N4CC5(C4)CN(c4ccc(-c6cc(F)c7c(c6)C(=O)N(C(C(=O)Nc6nccs6)c6ncn8c6CCC8)C7)cc4)C5)CC3)c(C(F)F)c2)C(=O)N1 (centres unmarked) [Compound 104, 2-(6-(4-(6-(2-(1-(2-(difluoromethyl)-4-((2,6-dioxopiperidin-3-yl)amino)phenyl)-4-hydroxypiperidin-4-yl)acetyl)-2,6-diazaspiro[3.3]heptan-2-yl)phenyl)-4-fluoro-1-oxoisoindolin-2-yl)-2-(6,7-dihydro-5H-pyrrolo[1,2-c]imidazol-1-yl)-N-(thiazol-2-yl)acetamide]

- DC50 (EGFR L858R-T790M; Table 9B): < 50 nM
- DC50 (EGFR L858R; Table 9B): < 50 nM
SMILES: O=C1CC[C@@H](Nc2ccc(C3CCN(CC(=O)N4CCN(c5ccc(-c6cc(F)c7c(c6)C(=O)N(C(C(=O)Nc6nccs6)c6ncn8c6CCC8)C7)cc5)CC4)CC3)cc2)C(=O)N1 (stereo partly drawn) [Compound 175, 2-(6,7-dihydro-5H-pyrrolo[1,2-c]imidazol-1-yl)-2-[6-[4-[4-[2-[4-[4-[[(3R)-2,6-dioxo-3-piperidyl]amino]phenyl]-1-piperidyl]acetyl]piperazin-1-yl]phenyl]-4-fluoro-1-oxo-isoindolin-2-yl]-N-thiazol-2-yl-acetamide]

- DC50 (EGFR L858R-T790M; Table 9B): < 50 nM
- DC50 (EGFR L858R; Table 9B): < 50 nM
SMILES: O=C1CCC(Nc2ccc(C3CCC(CC(=O)N4CCN(c5ccc(-c6cc(F)c7c(c6)C(=O)N(C(C(=O)Nc6nccs6)c6ncn8c6CCC8)C7)cc5)CC4)CC3)cc2)C(=O)N1 (centres unmarked) [Compound 177, 2-(6,7-dihydro-5H-pyrrolo[1,2-c]imidazol-1-yl)-2-(6-(4-(4-(2-(4-(4-((2,6-dioxopiperidin-3-yl)amino)phenyl)cyclohexyl)acetyl)piperazin-1-yl)phenyl)-4-fluoro-1-oxoisoindolin-2-yl)-N-(thiazol-2-yl)acetamide]

- DC50 (EGFR L858R-T790M; Table 9B): < 50 nM
- DC50 (EGFR L858R; Table 9B): < 50 nM
SMILES: O=C1CCC(Nc2ccc(C3CCN(C(=O)CN4CCN(c5ccc(-c6cc(F)c7c(c6)C(=O)N(C(C(=O)Nc6nccs6)c6ncn8c6CCC8)C7)cc5)CC4)CC3)cc2)C(=O)N1 (centres unmarked) [Compound 178, 2-(6,7-dihydro-5H-pyrrolo[1,2-c]imidazol-1-yl)-2-(6-(4-(4-(2-(4-(4-((2,6-dioxopiperidin-3-yl)amino)phenyl)piperidin-1-yl)-2-oxoethyl)piperazin-1-yl)phenyl)-4-fluoro-1-oxoisoindolin-2-yl)-N-(thiazol-2-yl)acetamide]
